Measured values taken from patent US11261177B2, “Benzoxazinone derivatives useful as herbicides” (REDAG CROP PROTECTION LTD, priority 2017, dated 2022).

Columns and labels:
Lolium perenne = assay: Post-emergence herbicidal assay, 96 cell trays, glasshouse; format: in vivo; details: 168 h, second trial (Table 2), Lollium, assessed 7 days after treatment, read-out: % control of plant growth; for pest or weed control at 200 g/ha: 0.2 kg/ha; for pest or weed control at 1000 g/ha: 1 kg/ha; for pest or weed control at 5000 g/ha: 5 kg/ha
Method: (§1) The compounds were screened at three concentrations (0.2, 1 and 5 kg/ha) against 2 weed species (Stellaria media—Chickweed and Lolium perenne). The seeds were sown in the cells of 96 cell trays (4-6 seeds per cell). For the pre-emergence assay, 75 μL of a suspension of the test compound, at the above doses, was added on top of the soil 1 day after sowing. For the post-emergence assay, the seedlings were sprayed with 200 μL of a suspension of the test compound two weeks after sowing. The formulation used is 25% acetone and 75% water/0.01% Tween 20. Each treatment was replicated three times. The plants were kept in a glasshouse (uncontrolled conditions) and assessed 7 days after treatment. A small number of compounds were tested in a first trial. A larger number of compounds were tested in a second trial. The assessment was based on the % control of plant growth in each cell.

[1] = test system: Stellaria media—Chickweed; assay: as above; format: in vivo; details: 168 h, second trial (Table 2), assessed 7 days after treatment, read-out: % control of plant growth; for pest or weed control at 200 g/ha: 0.2 kg/ha; for pest or weed control at 1000 g/ha: 1 kg/ha; for pest or weed control at 5000 g/ha: 5 kg/ha
Method: as §1

For COC(=O)C(C)N1C(=O)C2(CC2)Oc2cc(F)c(N3C(=O)C4COCCN4C3=O)cc21 (stereo not drawn) [Example 49], the pest or weed control at 200 g/ha (Lolium perenne) was < 20%, the pest or weed control at 1000 g/ha (Lolium perenne) was < 20% and the pest or weed control at 5000 g/ha (Lolium perenne) was < 20%. It also gave a pest or weed control at 200 g/ha [1] of 80 to 100%, a pest or weed control at 1000 g/ha [1] of 80 to 100% and a pest or weed control at 5000 g/ha [1] of 80 to 100%.
O=C1N(CC2CC2)c2cc(/N=c3\sc(=O)n4n3CCCC4)c(F)cc2OC12CC2 [Example 37] gave a pest or weed control at 200 g/ha (Lolium perenne) of 20 to 80%, a pest or weed control at 1000 g/ha (Lolium perenne) of 20 to 80% and a pest or weed control at 5000 g/ha (Lolium perenne) of 80 to 100%. It also gave a pest or weed control at 200 g/ha [1] of 80 to 100%, a pest or weed control at 1000 g/ha [1] of 80 to 100% and a pest or weed control at 5000 g/ha [1] of 80 to 100%.
In the case of O=C1C2COCCN2C(=O)N1c1cc2c(cc1F)OC1(CC1)C(=O)N2CC1CC1 (stereo not drawn) [Example 48], the pest or weed control at 200 g/ha (Lolium perenne) was < 20%, the pest or weed control at 1000 g/ha (Lolium perenne) was < 20% and the pest or weed control at 5000 g/ha (Lolium perenne) was 20 to 80%. For the same compound, the pest or weed control at 200 g/ha [1] was 80 to 100%, the pest or weed control at 1000 g/ha [1] was 80 to 100% and the pest or weed control at 5000 g/ha [1] was 80 to 100%.
With O=C1C2CC(O)CN2C(=O)N1c1cc2c(cc1F)OC1(CC1)C(=O)N2CC1CC1 (stereo not drawn) [Example 46] the pest or weed control at 200 g/ha (Lolium perenne) was < 20%, the pest or weed control at 1000 g/ha (Lolium perenne) was < 20% and the pest or weed control at 5000 g/ha (Lolium perenne) was < 20%. For the same compound, the pest or weed control at 200 g/ha [1] was < 20%, the pest or weed control at 1000 g/ha [1] was < 20% and the pest or weed control at 5000 g/ha [1] was < 20%.
For C#CCN1C(=O)C2(CC2)Oc2cc(F)c(N3C(=O)C4COCCN4C3=O)cc21 (stereo not drawn) [Example 45, 2-(7-Fluoro-3-oxo-4-(prop-2-yn-1-yl)-3,4-dihydrospiro[benzo[b][1,4]oxazine-2,1′-cyclopropan]-6-yl)tetrahydro-1H-imidazo[5,1-c][1,4]oxazine-1,3(2H)-dione], the pest or weed control at 200 g/ha (Lolium perenne) was 80 to 100%, the pest or weed control at 1000 g/ha (Lolium perenne) was 80 to 100% and the pest or weed control at 5000 g/ha (Lolium perenne) was 80 to 100%. It also gave a pest or weed control at 200 g/ha [1] of 80 to 100%, a pest or weed control at 1000 g/ha [1] of 80 to 100% and a pest or weed control at 5000 g/ha [1] of 80 to 100%.
For COC(=O)C(C)N1C(=O)C2(CC2)Oc2cc(F)c(/N=c3\sc(=O)n4n3CCCC4)cc21 (stereo not drawn) [Example 38], the pest or weed control at 200 g/ha (Lolium perenne) was 20 to 80%, the pest or weed control at 1000 g/ha (Lolium perenne) was 20 to 80% and the pest or weed control at 5000 g/ha (Lolium perenne) was 80 to 100%. For the same compound, the pest or weed control at 200 g/ha [1] was 80 to 100%, the pest or weed control at 1000 g/ha [1] was 80 to 100% and the pest or weed control at 5000 g/ha [1] was 80 to 100%.
With N#CCN1C(=O)C2(CC2)Oc2cc(F)c(N3C(=O)C4COCCN4C3=O)cc21 (stereo not drawn) [Example 50] the pest or weed control at 200 g/ha (Lolium perenne) was < 20%, the pest or weed control at 1000 g/ha (Lolium perenne) was < 20% and the pest or weed control at 5000 g/ha (Lolium perenne) was < 20%. It also gave a pest or weed control at 200 g/ha [1] of 80 to 100%, a pest or weed control at 1000 g/ha [1] of 80 to 100% and a pest or weed control at 5000 g/ha [1] of 80 to 100%.
In the case of O=C1C2CCCN2C(=O)N1c1cc2c(cc1F)OC1(CC1)C(=O)N2CC1CC1 (stereo not drawn) [Example 52], the pest or weed control at 200 g/ha (Lolium perenne) was < 20%, the pest or weed control at 1000 g/ha (Lolium perenne) was 20 to 80% and the pest or weed control at 5000 g/ha (Lolium perenne) was 20 to 80%. The pest or weed control at 200 g/ha [1] was 80 to 100%, the pest or weed control at 1000 g/ha [1] was 80 to 100% and the pest or weed control at 5000 g/ha [1] was 80 to 100%.
For CC(C)=CCN1C(=O)C2(CC2)Oc2cc(F)c(N3C(=O)C4COCCN4C3=O)cc21 (stereo not drawn) [Example 51], the pest or weed control at 200 g/ha (Lolium perenne) was < 20%, the pest or weed control at 1000 g/ha (Lolium perenne) was < 20% and the pest or weed control at 5000 g/ha (Lolium perenne) was < 20%. It also gave a pest or weed control at 200 g/ha [1] of 80 to 100%, a pest or weed control at 1000 g/ha [1] of 80 to 100% and a pest or weed control at 5000 g/ha [1] of 80 to 100%.
